Source: publication PMC10179503, “Using Machine Learning and Molecular Docking to Leverage Urease Inhibition Data for Virtual Screening” (International Journal of Molecular Sciences, 2023)

molecular target: T1, jack bean urease (Canavalia ensiformis, UniProt P07374); experiment: indophenol (Weatherburn) ammonia release, […] nm; format: biochemical; details: urea (20 mM stock, 45 μL), PBS, 30 °C, 10 min
T1 construct: nickel metalloenzyme; full length 840 residues, native oligomer a hexamer (known biology)
T1 sequence (P07374 whole entry): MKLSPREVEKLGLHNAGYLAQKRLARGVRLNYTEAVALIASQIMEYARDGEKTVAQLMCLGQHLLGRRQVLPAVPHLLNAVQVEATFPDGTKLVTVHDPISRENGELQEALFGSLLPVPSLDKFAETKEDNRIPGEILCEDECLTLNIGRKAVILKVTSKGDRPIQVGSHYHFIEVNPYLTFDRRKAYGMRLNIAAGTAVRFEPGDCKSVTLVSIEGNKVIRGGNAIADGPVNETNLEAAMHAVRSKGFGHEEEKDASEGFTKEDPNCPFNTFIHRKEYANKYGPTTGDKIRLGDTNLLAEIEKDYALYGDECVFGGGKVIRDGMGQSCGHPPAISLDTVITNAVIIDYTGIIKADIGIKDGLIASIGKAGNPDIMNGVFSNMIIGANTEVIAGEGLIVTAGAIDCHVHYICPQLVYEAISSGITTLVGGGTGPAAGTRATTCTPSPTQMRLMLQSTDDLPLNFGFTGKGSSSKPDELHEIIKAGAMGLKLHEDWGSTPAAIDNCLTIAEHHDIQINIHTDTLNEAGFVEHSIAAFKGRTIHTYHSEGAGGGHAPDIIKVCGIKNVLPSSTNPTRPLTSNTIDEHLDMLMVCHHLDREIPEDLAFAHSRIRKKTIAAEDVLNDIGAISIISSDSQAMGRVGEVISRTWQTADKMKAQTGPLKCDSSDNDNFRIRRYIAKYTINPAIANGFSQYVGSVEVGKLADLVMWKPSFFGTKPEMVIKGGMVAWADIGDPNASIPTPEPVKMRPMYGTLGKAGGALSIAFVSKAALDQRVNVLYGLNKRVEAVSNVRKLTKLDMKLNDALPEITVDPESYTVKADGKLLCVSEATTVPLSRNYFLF

Structure (SMILES) | % at 1 mM or IC50 ± SEM (μM) [%]
Cc1ccc(S(=O)(=O)NOCc2ccccc2)cc1 [compound 1, 1] | 43.85
O=C(ON[S+]([O-])c1ccccc1)c1ccccc1 (stereo not drawn) [compound 4, 4] | 0

molecular target: T1, jack bean urease; experiment: indophenol (Weatherburn) ammonia release, […] nm; format: biochemical; details: read-out: % at 1 mM or IC50 ± SEM

Structure (SMILES) | IC50 [µM]
NC(N)=S [Thiourea, reference compound] | 144 ± 5.08
O=S(=O)(NOCc1ccccc1)c1ccccc1 [compound 2, 2] | 100 ± 10.2
[O-][S+](NOCc1ccccc1)c1ccccc1 (stereo not drawn) [compound 3, 3] | 6.15 ± 0.99
NOC(=O)c1ccccc1 [compound 5, 5] | 155 ± 2.02
